How the values were obtained:
[1] = system: FDB muscle fibers from R163C mice; assay: In vitro [Ca2+]i by Ca2+-selective microelectrode in FDB fibers from R163C mice; format: cell-based, mouse; details: 0-5 µM
Method: WT and mutant mice (R2509C, 8- to 20-week old; R163C, 12- to 16-week old, and G2435R, 12- to 16-week old) were euthanized and flexor digitorum brevis (FDB) muscles were dissected and incubated with 2 mg/mL collagenase (Worthington Biochemical Co., NJ, USA) in the HEPES-Krebs solution containing 2 mg/mL bovine serum albumin for 2–3 h at 37 °C. Following incubation, single cells were separated by gentle trituration in collagenase-free HEPES-Krebs solution. Isolated single FDB cells were seeded on a laminin-coated cover slip of the 35 mm glass-bottom dish or on 96 well plate coated with Cultrex basement membrane matrix (Trevigen, Minneapolis, USA).
Ca^2+ ion specific microelectrode recordings were performed as follows[38],[50]. For in vivo measurements, WT and heterozygous R163C mice (12- to 16-week old) were anesthetized by i.p. injection of 100 mg/kg ketamine and 5 mg/kg xylazine and placed on a 37 °C heating pad and their temperature was monitored. The vastus lateralis was exposed surgically after which its muscle fibers were impaled with double-barreled Ca^2+-selective microelectrode, and the potentials were recorded via a high-impedance amplifier (WPI Duo 773 electrometer; WPI, Sarasota, FL, USA). […] Muscle fibers were impaled with the microelectrodes as above and [Ca^2+]i was determined in the presence of varying (0–5 µM) concentrations of Cpd1.

mice = assay: Observation of side effects in mice; format: in vivo, mouse

Compound: CCCCCCCCn1cc(C(=O)O)c(=O)c2cc3c(cc21)OCO3 [Cpd1, 6,7-(methylenedioxy)-1-octyl-4-quinolone-3-carboxylic acid]
- effect on [Ca2+]i in quiescent fibers [1]: reduced [Ca^2+]i in R163C fibers in a dose-dependent manner to the level of WT fibers
- side effects (mice): no apparent side effects of Cpd1 other

Reference: article PMC8277899, “A novel RyR1-selective inhibitor prevents and rescues sudden death in mouse models of malignant hyperthermia and heat stroke” (Nature Communications, 2021)
